For twelve molecules, TGI and GI50 results are on record in PubChem BioAssay (NCI).

In general, TGI refers to the concentration at which net growth stops. By GI50 is commonly meant the concentration giving 50% growth inhibition.

The structures appear in SMILES notation. “And” between values parts separate entries of the source, which are not always exact repeats. Identical values can stand only once.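 Cultured in 96-well plates, cells were exposed to test compound for 48 hours across five concentrations. At the GI50, growth is halved. TGI marks complete inhibition of growth.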

Test systems include HS 578T breast; TK-10 renal; HOP-92 NSCLC; K-562 leukemia; IGROV1 ovarian; HCC-2998 colon; SK-MEL-28 melanoma; MDA-MB-435; OVCAR-8 ovarian; SR leukemia.
Common to all, as to experiment: DTP human tumour cell line panel, 48 h

As for `Cc1sc(Cc2ccccc2)nc1-c1ccc(N)cc1`, the TGI in the test with HS 578T breast is > 100 µM; with TK-10 renal, > 100 µM; in the test with HOP-92 NSCLC, 43.4 µM; in the test with K-562 leukemia, > 100 µM; with IGROV1 ovarian, 89.8 µM; in the test with HCC-2998 colon it was 35.5 µM. Besides, the results for the TGI with SK-MEL-28 melanoma, in the test with MDA-MB-435 and in the test on OVCAR-8 ovarian were 61.4 µM, 37.7 µM and > 100 µM, respectively.

For `NC(=O)CCCC(NCc1c2ccccc2nc2ccccc12)C(=O)O` (centres undefined), the total growth inhibition concentration (TGI) is > 100 µM with TK-10 renal; 85.7 µM in the test with HOP-92 NSCLC; > 100 µM in the test with K-562 leukemia; > 100 µM in the test on IGROV1 ovarian; > 100 µM in the test with SR leukemia; > 100 µM in the test on HCC-2998 colon. In addition, the TGI with SK-MEL-28 melanoma and with OVCAR-8 ovarian was > 100 µM each time.

With `O=S(=O)(Sc1ccc(Cl)cc1)c1ccc(Cl)cc1`, the TGI worked out at 61.4 µM in the test with TK-10 renal; 42.1 µM in the test on HOP-92 NSCLC; 93.7 µM in the test on K-562 leukemia; 31.1 µM with IGROV1 ovarian; 45 µM in the test on SR leukemia; 40.7 µM in the test on HCC-2998 colon. Also, the TGI in the test with SK-MEL-28 melanoma came out at 31.1 µM; with OVCAR-8 ovarian, 30.2 µM.

For the molecule `CC1C(O)C2(Oc3cc4c(c5c3[C@@H](CC5O)[C@H]2C)CCC2Cc3nc5c(nc3C[C@@]42C)CC2CCC3C4=C[C@H]6O[C@@]7(O[C@@](C)(CO)C[C@@H]7O)C(C)[C@@]6(O)[C@]4(C)[C@@H](O)CC3[C@]2(C)C5)OC1(C)C` (some centres undefined), the TGI with HOP-92 NSCLC was > 3.67 µM; in the test on K-562 leukemia, 0.367 µM; with IGROV1 ovarian, 0.894 µM; in the test with HCC-2998 colon, > 3.67 µM; in the test with OVCAR-8 ovarian, 1.36 µM.

In the case of `O=NC1C(Cl)C2CC1C1C(Br)C(Br)CC21` (centres undefined), the TGI in the test with HS 578T breast, in the test on TK-10 renal, with HOP-92 NSCLC, with K-562 leukemia, in the test with IGROV1 ovarian and with SR leukemia was > 100 µM in each case. Besides, the concentration for total growth inhibition (TGI) in the test with SK-MEL-28 melanoma, in the test on MDA-MB-435 and with OVCAR-8 ovarian was > 100 µM each time.

For `N#CC(c1ccccc1)c1nc2ccc(=N)cc-2n(O)c1C(C#N)c1ccccc1` (centres undefined), the TGI with TK-10 renal, in the test with K-562 leukemia, in the test with IGROV1 ovarian, in the test on SR leukemia, in the test on SK-MEL-28 melanoma and in the test on OVCAR-8 ovarian was > 100 µM each time.

With `CN1CCCCC1CCN1CCCCC1` (centres undefined), the TGI in the test on HS 578T breast, in the test with TK-10 renal, in the test with HOP-92 NSCLC, in the test with K-562 leukemia, in the test on IGROV1 ovarian and in the test on HCC-2998 colon was > 100 µM in each case. Besides, the TGI in the test on SK-MEL-28 melanoma, in the test on MDA-MB-435 and in the test with OVCAR-8 ovarian was > 100 µM in each case.

`CN(C)CCNc1nc(-c2ccc3ccccc3c2)nc2nc[nH]c12`: the TGI with HS 578T breast was 22.8 µM; with TK-10 renal, 19.4 µM; in the test on K-562 leukemia, > 100 µM; in the test on IGROV1 ovarian, 15.4 µM; in the test on SR leukemia it was 24.7 µM; in the test with HCC-2998 colon, 10.6 µM. The TGI is 28.9 µM in the test with SK-MEL-28 melanoma, 25 µM in the test with MDA-MB-435 and 24.4 µM in the test with OVCAR-8 ovarian.

In the case of `CN(C)c1ccc(/C=N\NC(=O)CSCC(=O)N/N=C/c2ccc(N(C)C)cc2)cc1`, the TGI in the test with HS 578T breast was 82.1 µM; in the test on TK-10 renal, > 100 µM; in the test on HOP-92 NSCLC, > 100 µM; with K-562 leukemia, > 100 µM; in the test with IGROV1 ovarian, > 100 µM; with SR leukemia, > 100 µM. In addition, the TGI in the test with SK-MEL-28 melanoma, in the test with MDA-MB-435 and in the test on OVCAR-8 ovarian was > 100 µM each time.

`CC12CCC(C(=O)OC1=O)C(C)(C)O2` (centres undefined): the concentration for total growth inhibition (TGI) in the test on HS 578T breast, in the test on TK-10 renal, in the test with HOP-92 NSCLC, in the test on K-562 leukemia, with IGROV1 ovarian and in the test on HCC-2998 colon was > 100 µM throughout. Also, the TGI in the test with SK-MEL-28 melanoma, with MDA-MB-435 and in the test with OVCAR-8 ovarian was > 100 µM throughout.

As to `Cc1cc(NCc2cc(Nc3ccnc4cc(Cl)ccc34)ccc2F)nc(N2CCCC2)n1`, the GI50 in the test on HS 578T breast was 1.61 µM; in the test with TK-10 renal it was 1.94 µM; with HOP-92 NSCLC, 0.763 µM; in the test on IGROV1 ovarian it was 1.69 µM; with SR leukemia, 0.265 µM; with MDA-MB-435, 1.61 µM. Also, the TGI in the test on HS 578T breast was determined as 4.6 µM; in the test with TK-10 renal, 3.61 µM; in the test with HOP-92 NSCLC, 2.61 µM; in the test on IGROV1 ovarian, 4.2 µM; with SR leukemia, 1.12 µM; with MDA-MB-435, 3.01 µM.

Consider `Cc1c2cc[n+](CCN3CCCCC3)cc2c(C)c2c1[nH]c1ccc(O)cc12`, for which the TGI was > 100 µM in the test on HS 578T breast; > 57.6 µM with TK-10 renal; 46.6 µM and 42 µM in the test on HOP-92 NSCLC; 25.3 µM and 14.8 µM in the test on K-562 leukemia; 38.1 µM and 30.4 µM in the test with IGROV1 ovarian; 3.49 µM with SR leukemia. For the same molecule, the TGI in the test with HCC-2998 colon is 53 µM and 37.4 µM; in the test with SK-MEL-28 melanoma, 33.7 µM and > 45.9 µM; with MDA-MB-435, 34.5 µM; in the test on OVCAR-8 ovarian, 30.6 µM and 44.7 µM. The GI50 is 4.34 µM with HOP-92 NSCLC; 2.33 µM with K-562 leukemia; 4.43 µM in the test with IGROV1 ovarian; 14.3 µM in the test on HCC-2998 colon; 9.29 µM in the test with SK-MEL-28 melanoma; 3.36 µM in the test with OVCAR-8 ovarian.
